Measurements reported in patent publication US9789101B2, “Methods and compositions for treating microbial infection using pyrroloquinone” (HELPERBY THERAPEUTICS LIMITED, priority 2010, dated 2017).
Blank lines part the entries; values can stand above or below the compound they belong to.

Assays:
[1] = system: clinically latent microorganisms; assay: Screening for ability to kill clinically latent microorganisms (method of WO2000028074); type: cell-based; details: observed by the Applicant
Text: International Patent Application, Publication Number WO2000028074 describes a method of screening compounds to determine their ability to kill clinically latent microorganisms. […] This observation has necessitated the development of novel antimicrobials which may be used to kill clinically latent microorganisms.
By way of example, WO2000028074 describes a suitable method of screening compounds to determine their ability to kill clinically latent microorganisms. A typical method may include the following steps: • (1) growing a bacterial culture to stationery phase; • (2) treating the stationery phase culture with one or more antimicrobial agents at a concentration and or time sufficient to kill growing bacteria, thereby selecting a phenotypically resistant sub-population; • (3) incubating a sample of the phenotypically resistant subpopulation with one or more test compounds or agents; and • (4) assessing any antimicrobial effects against the phenotypically resistant subpopulation.

[2] = system: log phase Staphylococcus aureus; assay: Chequerboard analysis of HT00800059 and HT61 against log phase Staphylococcus aureus; type: cell-based, Staphylococcus aureus (Oxford)
Experimental: (§1) Staphylococcus aureus (Oxford); Gram positive; Reference strain.
(§2) Log phase growth of methicilin sensitive Staphylococcus aureus (MSSA) was carried out as follows: • Bacteria were grown in 10 ml of nutrient broth (No. 2, (Oxoid)) overnight at 37° C. with continuous shaking at 120 rpm. The overnight cultures were diluted 1000× with iso-sensitest broth. The cultures were incubated at 37° C. with shaking for 1-2 hours to reach log CFU 6. Viability of the bacteria was estimated by colony forming unit (CFU) counts. From serial 10-fold dilutions of the experimental cultures, 100 μl samples were added to triplicate plates of nutrient agar plates (Oxoid) or blood agar plates (Oxoid). CFUs were counted after incubation of the plates at 37° C. for 24 hours.
(§3) Bacterial cultures: 10 μl of overnight cultures was added to 10 ml of fresh iso-sensitest broth to make the inoculation to 10^6 CFU/ml. 290 μl of the cell suspension was added to each well of the 96 well plate, which was incubated at 37° C. for 24 hours. 300 μl of iso-sensitest broth without bacterial cells were added to wells of the plate as a no bacterial control.
(§4) MIC determination: The optical density of the bacterial cells was read at 405 nm using a plate reader (Bio TEK). The MIC concentration was determined as the lowest concentration of drug which inhibits the bacterial growth.
(§5) HT61 was dissolved in DMSO to the stock concentration of 10 mg/ml.
(§6) HT00800059 was dissolved in H2O to the stock solution 30.07 mg/ml.
The drugs were first diluted as follows: • 28.8 μl of HT61 at 10 mg/ml was added into 271.2 μl of H2O followed by diluting 2 fold for 6 times.
Both drugs were mixed as following pattern: 10 μl of HT00800059 from each dilution was added into the wells of a 96 well plate from top to bottom and 10 μl of HT61 from each dilution was added to the same 96 well plate from left to right. After addition of 280 μl log phase cell suspension, the final concentrations of drugs for each well in the 96 well plate are shown in the table below.
Incubation of the compounds with the bacterial suspension was carried out for 24 hours. The kill effect of the drug combination and signal drug MIC was measured by optical density reading at 405 nm with a plate reader (Bio TEK). The MIC concentration was determined as the lowest concentration of drug which inhibits the bacterial growth.
(§7) The fractional inhibitory concentration (FIC) index was carried out as follows: (MIC of drug A, tested in combination)/(MIC of drug A, tested alone)+(MIC of drug B, tested in combination)/(MIC of drug B, tested alone). The interaction was defined as synergistic if the FIC index was <1, additive if the FIC index was =1 and antagonistic if the FIC index was >1.

[3] = system: stationary phase Staphylococcus aureus; assay: In vitro efficacy test against stationary phase Staphylococcus aureus (CFU counts); type: cell-based, Staphylococcus aureus (Oxford); details: CFU counts over 8 hours
Experimental: as §1
Stationary phase growth of methicilin sensitive Staphylococcus aureus (MSSA) was carried out as follows:
Subculture of the bacterial strains on agar plates: Overnight S. aureus bacterial cultures were stored at −70° C. with 20% glycerol (cryoprotectant). A loopful of the frozen cells was streaked on a blood agar plate which was incubated at 37° C. overnight (or longer) as culture plate A. A single colony of each strain from the culture plate A was streaked on the blood agar plate which was incubated at 37° C. overnight (or longer) as culture plate B. The culture plate B was stored at 4° C. for a week and served as the initial inoculation plate.
Bacterial growth in broth culture: A single colony from culture plate B was inoculated in 10 ml of nutrient broth (No. 2, (Oxoid)), which was incubated overnight at 37° C. with continuous shaking at 120 rpm. 200 μl of the overnight culture was added into a 500 ml bottle containing 100 ml of nutrient broth. The 100 ml culture was incubated at 37° C. with continuous shaking for 6 to 7 days. Viability of the cultures is estimated by colony forming unit (CFU) counts at 2 hour intervals for the first 24 hours and 12 to 24 hours afterwards.
Colony Forming Unit (CFU) counts were performed as follows: From serial 10-fold dilutions of the cultures, 100 μl samples were added to one third of blood agar plates (Oxoid) in triplicate. CFUs were counted using an aCoLyte colony counter (Synbiosis) after incubation of the plates at 37° C. for 24 hours or longer.
7 day old stationary phase cultures were used. The stationary phase cultures were diluted to obtain CFU counts in the cell suspension of 10^6 to 10^7 CFU/ml. The cell suspension was used to test drug sensitivity.
as §5
HT00800059 was dissolved in H2O to the stock solution 10 mg/ml
The drugs were first diluted as follows: • 7.2 μl of HT61 at 10 mg/ml was added into 292.8 μl of H2O followed by diluting 2 fold, 3 times. • 57.6 μl of HT00800059 at 10 mg/ml was added into 242.4 μl of H2O followed by diluting 2 fold, 2 times. • 10 μl of HT00800059 from each dilution was added into the wells of a 96 well plate followed by the addition of 290 μl of bacterial cell suspension to make the final concentrations of HT00800059 at 64, 32 and 0 μg/ml. • […]
In combination of two drugs: 10 μl of HT61 from each dilution was added into the wells of a 96 well plate followed by the addition of 10 μl of HT00800059 from each dilution. […]

[4] = system: log phase Staphylococcus aureus; assay: Chequerboard analysis of HT00800059 with HT230 or HT281 against log phase Staphylococcus aureus; type: cell-based, Staphylococcus aureus (Oxford); details: for optical density reading at 405 nm: HT00800059 μg/ml: 1024,512,256,128,64,32,16,0, 24 hours; for MIC: Staphylococcus aureus, summary list, read-out: alone MIC
Experimental: as §1, §2, §3, §4
HT230 was dissolved in DMSO to the stock concentration of 10 mg/ml.
HT281 was dissolved in DMSO to the stock concentration of 10 mg/ml.
as §6
HT230 or HT281 (10 mg/ml) was firstly diluted to 0.96 mg/ml, then a serial of 2 fold dilution was carried out.
This was followed by the addition of 280 μl of log phase culture at 10^6 CFU/ml to make the final concentrations of each drug as shown.
In the above table, values in bold text are for HT00800059. Values in plain text are for HT230 or HT281. The numbers shown in each well are μg/ml.
Incubation of the compounds with the bacterial suspension was carried out for 24 hours. The kill effects of the drug combination were measured by optical density reading at 405 nm with a plate reader (Bio TEK).
as §7

SMILES: CC(=O)NC[C@H]1CN(c2ccc(N3CCOCC3)c(F)c2)C(=O)O1 [linezolid]
- activity against clinically latent microorganisms [1]: little or no activity

SMILES: CC[C@H]1OC(=O)[C@H](C)[C@@H](O[C@H]2C[C@@](C)(OC)[C@@H](O)[C@H](C)O2)[C@H](C)[C@@H](O[C@@H]2O[C@H](C)C[C@H](N(C)C)[C@H]2O)[C@](C)(O)C[C@@H](C)CN(C)[C@H](C)[C@@H](O)[C@]1(C)O [azithromycin]
- activity against clinically latent microorganisms [1]: little or no activity

Second part, led by results:

- MIC ([2]; Staphylococcus aureus, drug alone, Plate 1, read-out: MIC): 8 µg/mL
- MIC ([2]; Staphylococcus aureus, read-out: alone MIC): 16 µg/mL
- MIC ([2]; Staphylococcus aureus, with HT00800059 128 μg/ml, Plate 1, read-out: MIC of HT61 + HT00800059): 4 µg/mL
- MIC ([2]; drug alone, Plate 2): 8 µg/mL
- MIC of HT61 + HT00800059 ([2]; with HT00800059 128 μg/ml, Plate 2): 4 µg/mL
- HT61 MIC in combination ([2]; with HT00800059 at 128 μg/ml): 8 µg/mL
SMILES: Cc1nc2ccc(Oc3ccccc3)cc2c2c1CCN2CCc1ccccc1 [HT61, 4-methyl-1-(2-phenylethyl)-8-phenoxy-2,3-dihydro-1H-pyrrolo[3,2-c]-quinoline]
- activity against stationary phase S. aureus ([3]; 8 μg/ml): low activity
- activity against stationary phase S. aureus ([3]; 4 and 2 μg/ml): no observed activity

- MIC after combination ([4]; HT281/HT00800059 chequerboard): 4 µg/mL
- MIC before combination ([4]; HT281/HT00800059 chequerboard): 8 µg/mL
- MIC [4]: 8 µg/mL
SMILES: Cc1cc(N2CCC(Cc3ccccc3)C2)c2cc(NC(=O)c3ccccc3)ccc2n1 (stereo not shown) [HT281, N-[4-(3-benzylpyrrolidin-1-yl)-2-methylquinolin-6-yl]benzamide]
- optical density reading at 405 nm ([4]; HT281 0.125 μg/ml): 1.334
- optical density reading at 405 nm ([4]; HT281 0.25 μg/ml): 1.281
- optical density reading at 405 nm ([4]; HT281 0.5 μg/ml): 1.378
- optical density reading at 405 nm ([4]; HT281 0.625 μg/ml): 1.256
- optical density reading at 405 nm ([4]; HT281 1 μg/ml): 1.263
- optical density reading at 405 nm ([4]; HT281 2 μg/ml): 1.157
- optical density reading at 405 nm ([4]; HT281 4 μg/ml): 1.080
- optical density reading at 405 nm ([4]; HT281 8 μg/ml): 0.361
- optical density reading at 405 nm ([4]; HT281 16 μg/ml): 0.364
- optical density reading at 405 nm ([4]; HT281 32 μg/ml): 0.396
- optical density reading at 405 nm ([4]; HT281 64 μg/ml): 0.558

- MIC after combination ([4]; HT230/HT00800059 chequerboard): 1 µg/mL
- MIC before combination ([4]; HT230/HT00800059 chequerboard): 4 µg/mL
- MIC [4]: 4 µg/mL
- HT230 MIC in combination ([4]; with HT00800059 at 128 μg/ml): 4 µg/mL
- HT230 MIC in combination ([4]; with HT00800059 at 256 μg/ml): 1 µg/mL
SMILES: Cc1cc(N2CCC(Cc3ccccc3)C2)c2cc(Oc3ccccc3)ccc2n1 (stereo not shown) [HT230, 4-(3-benzylpyrrolidin-1-yl)-2-methyl-6-phenoxyquinoline]
- optical density reading at 405 nm ([4]; HT230 0.03125 μg/ml): 1.237
- optical density reading at 405 nm ([4]; HT230 0.0625 μg/ml): 1.312
- optical density reading at 405 nm ([4]; HT230 0.125 μg/ml): 1.317
- optical density reading at 405 nm ([4]; HT230 0.25 μg/ml): 1.401
- optical density reading at 405 nm ([4]; HT230 0.5 μg/ml): 1.135
- optical density reading at 405 nm ([4]; HT230 1 μg/ml): 1.160
- optical density reading at 405 nm ([4]; HT230 2 μg/ml): 1.190
- optical density reading at 405 nm ([4]; HT230 4 μg/ml): 0.365
- optical density reading at 405 nm ([4]; HT230 8 μg/ml): 0.363
- optical density reading at 405 nm ([4]; HT230 16 μg/ml): 0.357
- optical density reading at 405 nm ([4]; HT230 32 μg/ml): 0.406
